Data set [1] in a line: Dynamic light scattering (DLS) analysis of dendrons. Particulars: sample concentration 1 mg/mL, 4° C. It is filed as physicochemical. As to the method: PEGtides were purified on an Alliance reverse-phase high-performance liquid chromatography (RP-HPLC) system (Waters, Mass.) using a Symmetry C18 column (4.6×150 mm, 100 Å, particle size 5 μm). Following mobile phase was used: solvent A, 0.05% aqueous TFA; and solvent B, acetonitrile containing 0.05% TFA. A linear gradient of 95% to 70% of A was applied for 60 min at a flow rate of 1 mL/min. The UV absorptions were monitored at 220 and 250 nm, whereas fluorescence detector was set with excitation and emission wavelengths of 492 and 518 nm, respectively. The dendrons and there derivatives were quantified on a F-7000 fluorescence spectrophotometer (HITACHI, Japan). Mass spectra were acquired on an ABI-MDS SCIEX 4800 matrix-assisted laser desorption/ionisation-time of flight (MALDI-TOF/TOF) mass spectrometer (AB Sciex, Foster City, Calif.). Sample solutions (2 μL) were mixed with matrix solution (20 μL, 20 mg/mL sinapinic acid in 50% aqueous acetonitrile containing 0.1% TFA). This mixture (1 μL) was spotted onto sample holder and dried under a gentle stream of argon at room temperature. All spectra were recorded in positive mode using a linear acquisition method. The dynamic light scattering (DLS) experiments were performed on a Wyatt Dynapro Titan instrument (Wyatt Technology, Santa Barbara, Calif.) with sample concentration of 1 mg/mL. […]

The subject of data set [2] is J774.E murine macrophage cells. The experiment in a line: Confocal microscopy of dendron uptake. It counts as cell-based. Particulars: 40 nM, 1 hr, with rhodamine B-labeled dextran and DAPI. On the procedure: J774.E murine macrophage cells were grown as attached cells in a CO2 water-jacketed incubator (Form a Scientific Inc., Marietta, Ohio) with a humidified 5% CO2 atmosphere at 37° C. The cells were maintained in RPMI-1640 (GIBCO) containing 10% fetal bovine serum (FBS), 100 U/mL penicillin, and 100 μg/mL streptomycin/mL. The cells were seeded two days before experiment to 24-well plates at 0.5×10^5 cells/well for quantitative uptake measurement or to chambered coverglass (LAB-TEK II) at 1×10^5 cell/chamber for confocal microscopy. Cells were incubated with G3.0-Mannose (40 nM) in HBSS at 37° C. for 1 hr. For confocal microscopy, the incubation included the additional 0.16 mg/mL of the general endocytosis marker rhodamine B-labeled dextran (10,000 MW) and the nuclear dye DAPI. […]
In quantitative uptake experiments, the washed cells were lysed in wells overnight with 150 μL of 1 N NaOH solution and neutralized the next day with 150 μL of 1 N HCl solution, resulting in 300 μL of cell lysate/well. 250 μL of cell lysate was transferred to a well of a 96-well plate for 5-FAM fluorescence measurement on Tecan GENIOS fluorescent plate reader (Phenix Research Products, Hayward, Calif.). The total cell-associated fluorescence reading was converted into total cell-associated dendron amount using a separately established dendron's fluorescence standard curve. […]

In data set [3] the test system is J774.E murine macrophage cells. In words: Quantitative macrophage uptake of dendrons (5-FAM fluorescence of cell lysate), with mannan inhibition. It counts as cell-based. On the procedure:
J774.E murine macrophage cells were grown as attached cells in a CO2 water-jacketed incubator (Form a Scientific Inc., Marietta, Ohio) with a humidified 5% CO2 atmosphere at 37° C. The cells were maintained in RPMI-1640 (GIBCO) containing 10% fetal bovine serum (FBS), 100 U/mL penicillin, and 100 μg/mL streptomycin/mL. The cells were seeded two days before experiment to 24-well plates at 0.5×10^5 cells/well for quantitative uptake measurement or to chambered coverglass (LAB-TEK II) at 1×10^5 cell/chamber for confocal microscopy. Cells were incubated with G3.0-Mannose (40 nM) in HBSS at 37° C. for 1 hr. For confocal microscopy, the incubation included the additional 0.16 mg/mL of the general endocytosis marker rhodamine B-labeled dextran (10,000 MW) and the nuclear dye DAPI. For Mannan inhibition studies, cells were pre-incubated with mannan (10 mg/mL) for 1 hr, followed by incubation with G3.0-Mannose, with or without rhodamine B-dextran/DAPI plus 10 mg/mL of mannan. After incubation, the unbound molecules were washed thrice using cold DPBS buffer. PEGtide dendron G3.0 (40 nM) (without mannose) was used as a negative control of mannose receptor-mediated cellular uptake.
In quantitative uptake experiments, the washed cells were lysed in wells overnight with 150 μL of 1 N NaOH solution and neutralized the next day with 150 μL of 1 N HCl solution, resulting in 300 μL of cell lysate/well. 250 μL of cell lysate was transferred to a well of a 96-well plate for 5-FAM fluorescence measurement on Tecan GENIOS fluorescent plate reader (Phenix Research Products, Hayward, Calif.). The total cell-associated fluorescence reading was converted into total cell-associated dendron amount using a separately established dendron's fluorescence standard curve. A small fraction of the lysate (about 50 μL, depending on cell density plated) was used to determine total cellular protein/well by Bradford Protein Assay. The total cellular protein/well was used to normalize the dendron amount/well to correct well-to-well variation in cell mass.

The nature of data set [4]: Cell viability MTT assay. Particulars: mouse, J774.E murine macrophage cells; 40 nM in HBSS for 2 hours; mean±standard deviation (n=6); read-out: cell relative viability (MTT). It is filed as cell-based. On the procedure: (1) Prepared MTT solution in PBS (pH 7.4) with final concentration of 5 mg/mL.
(2) Cultured J774.E muring macrophage cells with G3.0-Mannose, G3.0 and PAMAM G1.0, with each concentration of 40 nM, in HBSS for 2 hours. 6 replicates were applied. (n=6).
(3) Aspirated off the culture medium and washed with DPBS for three times for each well.
(4) 100 μL of HBSS and 25 μL of MIT solution were added to each well. Placed the plate in incubator at 37° C. overnight.
(5) Aspirated off the HBSS/MTT solution. Added 200 μL of DMSO for dissolving the crystals.
(6) Transferred to plate reader and measure the absorption at 570 nm.
A general note: Tetrazolium assays rely on reduction of a dye to a coloured formazan, in cell work by metabolically active cells.

This is an account of results in patent US9457099B2, “Polyethylene glycol-based dendrons” (RUTGERS, THE STATE UNIVERSITY OF NEW JERSEY, priority 2010, dated 2016).

As a reminder, the viability is a read-out of living cells in per cent, often relative to untreated cells. Take `O=C(O)CCNC(=O)[C@H](CCCCNC(=O)c1ccc2c(c1)C(=O)OC21c2ccc(O)cc2Oc2cc(O)ccc21)NC(=O)CCOCCOCCOCCOCCOCCOCCNC(=O)[C@H](CCCCNC(=O)CCNC(=O)CCOCCOCCOCCOCCOCCOCCNC(=O)[C@H](CCCCNC(=O)CCNC(=O)CCOCCOCCOCCOCCOCCOCCNC(=O)[C@H](CCCCNC(=O)CCNC(=O)CCOCCOCCOCCOCCOCCOCCNC(=S)Nc1ccc(O[C@H]2O[C@H](CO)[C@@H](O)[C@H](O)[C@@H]2O)cc1)NC(=O)CCNC(=O)CCOCCOCCOCCOCCOCCOCCNC(=S)Nc1ccc(O[C@H]2O[C@H](CO)[C@@H](O)[C@H](O)[C@@H]2O)cc1)NC(=O)CCNC(=O)CCOCCOCCOCCOCCOCCOCCNC(=O)[C@H](CCCCNC(=O)CCNC(=O)CCOCCOCCOCCOCCOCCOCCNC(=S)Nc1ccc(O[C@H]2O[C@H](CO)[C@@H](O)[C@H](O)[C@@H]2O)cc1)NC(=O)CCNC(=O)CCOCCOCCOCCOCCOCCOCCNC(=S)Nc1ccc(O[C@H]2O[C@H](CO)[C@@H](O)[C@H](O)[C@@H]2O)cc1)NC(=O)CCNC(=O)CCOCCOCCOCCOCCOCCOCCNC(=O)[C@H](CCCCNC(=O)CCNC(=O)CCOCCOCCOCCOCCOCCOCCNC(=O)[C@H](CCCCNC(=O)CCNC(=O)CCOCCOCCOCCOCCOCCOCCNC(=S)Nc1ccc(O[C@H]2O[C@H](CO)[C@@H](O)[C@H](O)[C@@H]2O)cc1)NC(=O)CCNC(=O)CCOCCOCCOCCOCCOCCOCCNC(=S)Nc1ccc(O[C@H]2O[C@H](CO)[C@@H](O)[C@H](O)[C@@H]2O)cc1)NC(=O)CCNC(=O)CCOCCOCCOCCOCCOCCOCCNC(=O)[C@H](CCCCNC(=O)CCNC(=O)CCOCCOCCOCCOCCOCCOCCNC(=S)Nc1ccc(O[C@H]2O[C@H](CO)[C@@H](O)[C@H](O)[C@@H]2O)cc1)NC(=O)CCNC(=O)CCOCCOCCOCCOCCOCCOCCNC(=S)Nc1ccc(O[C@H]2O[C@H](CO)[C@@H](O)[C@H](O)[C@@H]2O)cc1` [G3.0-Mannose]: in data set [1], the “hydrodynamic radius (DLS)” value was 90.6 nm. In data set [2], the “intracellular green fluorescence (5-FAM), confocal microscopy” value is “prominent only in G3.0-Mannose treated cells”. Moreover, in data set [3] (40 nM in HBSS at 37° C. for 1 hr, normalized to total cellular protein), the “quantitative uptake in macrophage” value was 699.6 ± 1.8 pmol/µg. In addition, the “specificity for mannose receptor (uptake vs non-mannosylated G3.0)” value in data set [3] (40 nM, 1 hr) is reported as 53 fold. In addition, in data set [3] (40 nM, 1 hr, cells pre-incubated 1 hr and co-incubated with mannan 10 mg/mL), the “uptake in presence of mannan (mannan inhibition)” value turned out to be 7.5 ± 4.7 pmol/µg. Besides, the viability at 2 h, 0.04 µM in data set [4] came out at 96.4 ± 7.81%.
